Data taken from ChEMBL document CHEMBL3507680, “University of Dundee, Gates Library screen for HepG2 cell viability”.

Test: Human HepG2 cell viability assay in 384 well format
Assay type: toxicity, cell-based
Set-up: dose 125 nL, time 70.5 hour; cytotoxicity at 70.5 h: concentration not given beside the values
Conditions: HepG2 cells, read-out: Inhibition

SMILES	cytotoxicity at 70.5 h [%]
O=C(NCCn1cccc1)C1CCC(=O)N(C2CCCC2)C1 (centres undefined)	-8.05
CCN1CCN(CCCNc2ncccn2)CC1	9.52
c1cn(CCNc2nc(NC3CC3)nc3c2CCNCC3)nn1	-14.7
OCc1cn([C@@H]2c3ccccc3C3(CCNCC3)[C@H]2O)nn1	-9
Cn1ncc2c(N[C@@H]3CS(=O)(=O)C[C@H]3O)nc(C(C)(C)C)nc21	-9.52
Cc1nonc1OCCNC(=O)COc1ccc(Cl)cc1Cl	-13.9
CNC(=O)[C@@H]1C[C@@H](NC(=O)CSc2ccccc2)CN1C1CCOCC1	14.1
COc1cc(-c2cc(-c3ccn(C)c3)nc(N)c2C#N)cc(OC)c1O	-1.48
CCc1ccc(CN2CCN(C(=O)C(C)C)[C@@H]3CS(=O)(=O)C[C@@H]32)cc1	14.5
CCn1nc(C)c(C(C)NC(=O)c2cccc(NCC(=O)O)c2)c1C (centres undefined)	-9.45
Cc1n[nH]c(CCC(=O)N2CCOC(Cc3ccccc3)C2)c1C (centres undefined)	-7.3
CNc1ncc(CN(C)C(=O)c2cccc(-n3cccn3)c2)cn1	-6.94
O=C1CC(NS(=O)(=O)NCc2ccccc2)CN1c1ccccc1Cl (centres undefined)	5.29
OC1(CN(Cc2cccnc2)C2CCCCC2)CNCCOC1 (centres undefined)	-2.72
CCn1c(C)nnc1SCCNc1nc(C)nc2ncccc12	-15.7
CN(C)CCNC(=O)c1cc2n(n1)CCN(C(=O)c1ccco1)C2	-5.47
CC(C)n1cnnc1CN(C)Cc1cnc(-c2ccco2)nc1	-1.59
COCCN(C)CCN1CC2(CCN(C3CCOCC3)CC2)OC1=O	20.5
Cc1ccc(-c2cc(C(=O)N3CCCC3c3cccnc3)[nH]n2)o1 (centres undefined)	-4.23
CC(=O)c1cnc(NCCN2CCCC(c3ccccc3)C2)nc1C (centres undefined)	14.2
Cc1c[nH]c(CN(C)C(C(=O)O)c2c(F)cccc2Cl)n1 (centres undefined)	1.26
O=C(c1ccnc(N2CCOC(c3ccc(Cl)cc3)C2)c1)N1CCCC1 (centres undefined)	-15.4
CCn1c(C)cc(C(=O)N2CCCC(C(=O)c3nccn3C)C2)c1C (centres undefined)	19.6

SMILES	cytotoxicity at 70.5 h [%]
Cn1ccnc1C1CCN(C(=O)COCC(F)(F)C(F)F)CC1	-14.1
CCCn1cnnc1CNC1CSCCSC1	-9.24
Nc1ccnc(N2CCC(c3nccn3CC3CC3)CC2)n1	17.6
CCn1cc(S(=O)(=O)N2CCC3(CCCN(CC4CCC4)C3=O)C2)cn1 (centres undefined)	-0.872
CC(CO)CN(Cc1ccccc1)Cc1c[nH]cn1 (centres undefined)	-15.2
COc1ccc(OCC2CCCN(Cc3ccncc3)C2)cc1 (centres undefined)	-12.6
Cc1cc(C)n(CC(=O)N2CCCCC2CCN(C)C)c(=O)n1 (centres undefined)	-7.91
Cc1cc(C2CCC2)nc(N(C)Cc2cnccn2)n1	-6.23
COCCc1ncc(CN2C[C@@H](C(=O)O)[C@H](C(C)C)C2)cn1	14.1
COCCN(CC1CC1)c1nc(CCN)nc2sc(C)c(C)c12	26.7
COc1cccc(-n2cc(CN(C)Cc3ccnc(C(C)C)n3)cn2)c1	-6.06
COc1ccc(-c2nc3c([nH]2)CCCNC3=O)cc1OC	4.81
CC(C)(CNC1CCCN(Cc2ccccn2)C1)CN1CCOCC1 (centres undefined)	-12.6
NC(=O)c1cc(-c2cccc(C(=O)O)c2)cs1	-15.4
Cc1n[nH]c(C)c1CNC(=O)CSCc1ccccc1Cl	-0.888
c1cc2c(cc1Cn1cc(C3CCOC3)nn1)CCCO2 (centres undefined)	-13.2
CC(C)c1ccnc(N[C@H]2COC[C@@H]2N2CCCC2)n1	-15.2
COc1cc(NC2CCS(=O)(=O)C2)ncn1 (centres undefined)	-17.8
Cc1cc(N2CCC3(CCC(=O)N(CCO)C3)CC2)nc(N(C)C)n1	-3.81
Cc1noc(CC2CCN(C(=O)C(c3ccccc3C)N(C)C)CC2)n1 (centres undefined)	-12.1
CN(Cc1ccon1)C(=O)C1CC(=O)N(Cc2cccnc2)C1 (centres undefined)	-7.61
COc1ccc(-c2cn(CCSc3ncn[nH]3)nn2)cn1	-9.67
COCCC1(C(=O)O)CCCN(CC(=O)NCCc2ccccc2)C1 (centres undefined)	27.1

SMILES	cytotoxicity at 70.5 h [%]
COC(=O)CCCn1ccnc1C(C)c1ccccc1 (centres undefined)	-1.4
CCC(Nc1nccc(C2CCCC2)n1)c1ccncc1 (centres undefined)	3.69
Cc1noc(C)c1CN1C[C@@H](NS(=O)(=O)N(C)C)[C@H](C(C)C)C1	-8.39
CN1CC(c2ccccc2)CC12CCN(C(=O)c1ccncc1)CC2 (centres undefined)	-2.51
CN(C)C(=O)CCCNc1ncc2c(n1)CCN2c1ccccc1	-7.97
O=C(Nc1cnc2n1CCCC2)C1CCCN1C1CCNCC1 (centres undefined)	-15
CC(C)CCC1=NC2(CCN(C(=O)N3CCN(C)CC3)CC2)C(=O)N1	2.1
O=C(C1CCCC1)N1CCC(C2CCN(Cc3ccc(Cl)cc3)C2)CC1 (centres undefined)	-2.34
Cc1cc(C(=O)N2CCC(c3nccn3Cc3ccccn3)CC2)no1	-6.61
Cn1ncc(-c2cc(-c3cccc(O)c3)nc(N)c2C#N)c1C1CC1	37.1
N#Cc1cc2c(=O)n(CC(O)C(F)(F)F)ccc2[nH]c1=O (centres undefined)	3.74
CCOc1ccc(CCCC(=O)N2CC[C@H](NC(C)=O)C2)cc1C	-12.4
CC(NC(=O)C1CCN(C(C)C)CC1)c1nncn1C1CCCC1 (centres undefined)	-4.33
CN(C)C(=O)c1nc(CN2CC(Cc3ccccc3)CC2=O)no1 (centres undefined)	-2.6
COc1cccc(-c2noc3c2CN(c2ncnc4c2CCC4)CC3)c1	-6.28
CC(C)N(Cc1nccn1C)C(=O)c1cc(Cl)c[nH]c1=O	-6.81
CCNc1nc(C)c(C(=O)N2CCC(C(O)Cc3ccccc3)CC2)s1 (centres undefined)	-14.6
Cc1ccnc(N2C[C@@H]3CC[C@H](C2)N(CC2CCC2)C3=O)n1	9.42
COc1ncccc1C(=O)N(C)Cc1nc(-c2ccccn2)no1	-8.07
CCc1ccc2nc(-c3cnn(C)c3)cc(C(=O)N3CCOCC3)c2c1	-7.51
CNc1nc(CN2C[C@@H](NC(C)=O)[C@H](c3ccc(C)o3)C2)cs1	-16.5
C[C@@H]1CN(C(=O)CCN2CCCC2)CC[C@@]1(O)C1CCOCC1	-6.69
Cc1nc[nH]c1CN(Cc1ccccc1)Cc1nccs1	-6.42

SMILES	cytotoxicity at 70.5 h [%]
CC(C)N1CCCC2(CCN(C(=O)CCCn3cccn3)C2)C1=O (centres undefined)	6.53
CCOc1ccc(C(=O)N(CCOC)Cc2c(C)nn(CC)c2C)o1	-6.36
COc1cc(CN2CCCC(Nc3cccc(F)c3)C2)cc(OC)c1O (centres undefined)	-5.97
CN(Cc1cc2n(n1)CCNC2)Cc1n[nH]c2c1CCC2	-10.9
CC(=O)C1(c2ccccc2)CCN(C(=O)CC2CNCCO2)CC1 (centres undefined)	-31.5
Cc1ccc(-c2cc(CNC(=O)N3CCC(O)CC3)on2)cc1	0.512
CC(C)n1ncc2cc(NC(=O)N3CCSCC3)cnc21	-3.2
COc1ccc(C(O)CNC(=O)NCc2nc(C)cs2)cc1 (centres undefined)	-3.39
Cc1ccc(C(O)CNC(=O)NCc2csc(C)n2)cc1 (centres undefined)	-2.4
Cc1csc(N2CCN(C(=O)C(C(C)C)n3cncn3)CC2)n1 (centres undefined)	-1.51
CCCC(=O)NC1CCN(c2ccccc2S(=O)(=O)CC)CC1	17.6
CCS(=O)(=O)c1ccccc1N1CCC(NC(=O)C(C)C)CC1	5.03
Cc1nn(C)c(C)c1C1CCCN1CC(=O)Nc1cc(C(C)C)no1 (centres undefined)	-3.36
Cc1cc(NC(=O)CN2CCCC2c2c(C)nn(C)c2C)on1 (centres undefined)	-2.37
CCc1nc(C2CCCN(C(=O)c3cccnc3O)C2)no1 (centres undefined)	-0.758
O=C(NCC1CCS(=O)(=O)C1)N1CCN(c2cnccn2)CC1 (centres undefined)	3.28
CN1C(=O)CN(C(=O)c2ccc(=O)n(C)c2)c2ccccc21	1.56
Cc1csc(N2CCN(C(=O)C(C)n3cncn3)CC2)n1 (centres undefined)	0.112
CC(C)C(C(=O)N1CCCN(c2nccs2)CC1)n1cncn1 (centres undefined)	1.24
Cc1cnn(CC2CN(Cc3nc(C)c(C)o3)CCO2)c1 (centres undefined)	1.07
CCn1ccnc1CN1CCN(C(C)C(=O)N2CCCCCC2)CC1 (centres undefined)	-1.03
Cc1nc(CN(C)C2CCN(CC3CCOCC3)C2)no1 (centres undefined)	-2.15
CC(C(=O)N1CCCCCC1)N1CCN(Cc2nccn2C)CC1 (centres undefined)	-4.84

SMILES	cytotoxicity at 70.5 h [%]
Cc1nc(CN(C)C2CCN(CC3CCC3)C2)no1 (centres undefined)	-4.98
O=C(CCn1nc(-c2cccs2)oc1=O)Nc1cccc(F)c1	-6.28
CCOc1ncccc1CNC(=O)NC1CCOc2ccccc21 (centres undefined)	-4.63
Cc1ccc(-n2nnc(C(=O)NC(C)C)c2C2CC2)cc1	-4.09
O=C(C1CCCCC1)N1CCN(Cc2nc(-c3ccco3)no2)CC1	-5.01
CC(C)c1ncncc1C(=O)N1CCN(Cc2cccnc2)CC1	-6.82
CCn1ccnc1CN1CCN(C(C)C(=O)N2CCCC2)CC1 (centres undefined)	-3.5
Cc1cnn(CC2CN(Cc3nnc(-c4ccccc4)o3)CCO2)c1 (centres undefined)	-8.48
COC(=O)CCNC(=O)c1nnn(-c2ccc(C)cc2)c1C1CC1	16.4
Cc1nc2cc(C(=O)N3CCCC(n4ccnc4)C3)ccc2n1C (centres undefined)	-2.44
CC(=O)Nc1nc(CN2CCn3c(nnc3C(C)C)C2)cs1	-4.17
O=C(c1cc2c(s1)CCOC2)N1CCCC1Cn1cccn1 (centres undefined)	-8.49
CS(=O)(=O)NC(=O)c1nnn(-c2cccc(F)c2)c1C1CC1	-7.64
COc1cccc(C(=O)NS(=O)(=O)c2cccc(C#N)c2)c1	-6.99
Cc1ccccc1C1(C(=O)N2CCCC(n3cncn3)C2)CC1 (centres undefined)	-10.8
Cc1cnn(CC2CN(Cc3nc(C4CC4)no3)CCO2)c1 (centres undefined)	-6.98
Cc1cnn(CC2CN(Cc3nnc(C(C)C)o3)CCO2)c1 (centres undefined)	-6.07
CCc1nnc(CN2CCOC(Cn3cc(C)cn3)C2)o1 (centres undefined)	-6.6
COc1cc(C2(C(=O)N3CCCC(n4cncn4)C3)CC2)ccc1C (centres undefined)	-7.1
O=C(c1ccc2c(c1)COC2)N1CCCC(n2cncn2)C1 (centres undefined)	-4.03
CC(NC(=O)CCCC(=O)c1cccs1)c1nnc2n1CCC2 (centres undefined)	-9.34
O=C(c1cc(C2CC2)[nH]n1)N1CCN(Cc2ccc3c(c2)OCO3)CC1	-2.82
